Measured values reported in US20080300231A1, “Antibacterial amide macrocycles VI” (priority 2005, published 2008).

Target: S. aureus 133 Translation
Experiment: S. aureus in vitro transcription-translation assay (firefly luciferase, S30 extract)
Format: biochemical
Settings: 50% inhibition of the translation of firefly luciferase
From the text: In Vitro Transcription-Translation with S. aureus Extracts
Construction of an S. aureus luciferase Reporter Plasmid
In order to construct a reporter plasmid which can be used in an in vitro transcription-translation assay from S. aureus the plasmid pBESTluc (Promega Corporation, USA) is used. The E. coli tac promoter present in this plasmid in front of the firefly luciferase is replaced with the capA1 promoter with appropriate Shine-Dalgarno sequence from S. aureus. The primers CAPFor 5′-CGGCCAAGCTTACTC-[…] […]-3′ and CAPRev 5′-[…]-3′ are used for this. The primer CAPFor contains the capA1 promoter, the ribosome binding site and the 5′ region of the luciferase gene. After PCR using pBESTluc as template it is possible to isolate a PCR product which contains the firefly luciferase gene with the fused capA1 promoter. This is, after restriction with ClaI and HindIII, ligated into the vector pBESTluc which has likewise been digested with ClaI and HindIII. The resulting plasmid p1a can be replicated in E. coli and can be used as template in the S. aureus in vitro transcription-translation test.
Preparation of S30 Extracts from S. aureus
Six litres of BHI medium are inoculated with a 250 ml overnight culture of an S. aureus strain and allowed to grow at 37° C. until the OD600 nm is 2-4. The cells are harvested by centrifugation and washed in 500 ml of cold buffer A (10 mM Tris acetate, pH 8.0, 14 mM magnesium acetate, 1 mM DTT, 1 M KCl). After renewed centrifugation, the cells are washed in 250 ml of cold buffer A with 50 mM KCl, and the resulting pellets are frozen at −20° C. for 60 min. The pellets are thawed on ice in 30 to 60 min and taken up to a total volume of 99 ml in buffer B (10 mM Tris acetate, pH 8.0, 20 mM magnesium acetate, 1 mM DTT, 50 mM KCl). 1.5 ml portions of lysostaphin (0.8 mg/ml) in buffer B are introduced into 3 precooled centrifuge cups and mixed with 33 ml of the cell suspension each. The samples are incubated at 37° C., shaking occasionally, for 45 to 60 min, before 150 μl of a 0.5 M DTT solution are added. The lysed cells are centrifuged at 30 000×g and 4° C. for 30 min. The cell pellet is taken up in buffer B and then centrifuged again under the same conditions, and the collected supernatants are combined. The supernatants are centrifuged again under the same conditions, and 0.25 volumes of buffer C (670 mM Tris acetate, pH 8.0, 20 mM magnesium acetate, 7 mM Na3 phosphoenolpyruvate, 7 mM DTT, 5.5 mM ATP, 70 μM amino acids (complete from Promega), 75 μg of pyruvate kinase (Sigma, Germany))/ml are added to the upper ⅔ of the supernatant. The samples are incubated at 37° C. for 30 min. The supernatants are dialysed against 2 l of dialysis buffer (10 mM Tris acetate, pH 8.0, 14 mM magnesium acetate, 1 mM DTT, 60 mM potassium acetate) in a dialysis tube with a 3500 Da cut-off with one buffer change at 4° C. overnight. The dialysate is concentrated to a protein concentration of about 10 mg/ml by covering the dialysis tube with cold PEG 8000 powder (Sigma, Germany) at 4° C. The S30 extracts can be stored in aliquots at −70° C.
Determination of the IC50 in the S. aureus In Vitro Transcription-Translation Assay
The inhibition of protein biosynthesis of the compounds can be shown in an in vitro transcription-translation assay. The assay is based on the cell-free transcription and translation of firefly luciferase using the reporter plasmid p1a as template and cell-free S30 extracts obtained from S. aureus. The activity of the resulting luciferase can be detected by luminescence measurement.
The amount of S30 extract or plasmid p1a to be employed must be tested anew for each preparation in order to ensure an optimal concentration in the assay. 3 μl of the substance to be tested, dissolved in 5% DMSO, are provided in an MTP. Then […] of a suitably concentrated plasmid solution p1a are added. […]

Question: Which IC50 does the source give for `NC[C@H](O)C[C@@H]1NC(=O)[C@@H](N)Cc2cc(ccc2O)-c2ccc(O)c(c2)C[C@@H](C(=O)O)NC1=O` [Biphenomycin B, biphenomycin B, reference compound] here?
Answer: The IC50 was 1500 nM.
